Numbered stars: 1 amine (or outer) side, 2 acyl side, 3 side chain; on linkers, the order of the positions; unused ones are H or OH. Bridge positions count the residues as written; N and C are the ends. Peptide text beside a SMILES is read from it. I, II: the chains in the order shown. * marks the point of attachment. Tyr(Nα,Nα-allyl2) = C=CCN(CC=C)[C@@H](Cc1ccc(O)cc1)C(=O)*; Ethylenediamine = C(CN[*:2])N[*:1]
Experiment: tolerance in the rat, subcutaneous dose
Assay type: in vivo
Method: As an indication of the lack of toxicity of a specific compound of the invention, namely [diallyl-Tyr-Gly-Gly-Phe-Leu-NH-CH2 -]2, that compound is tolerated in the rat at a subcutaneous dose of at least 15 mg./kg.

C=CCN(CC=C)[C@@H](Cc1ccc(O)cc1)C(=O)NCC(=O)NCC(=O)N[C@@H](Cc1ccccc1)C(=O)N[C@@H](CC(C)C)C(=O)NCCNC(=O)[C@H](CC(C)C)NC(=O)[C@H](Cc1ccccc1)NC(=O)CNC(=O)CNC(=O)[C@H](Cc1ccc(O)cc1)N(CC=C)CC=C [Example 1, (diallyl-Tyr-Gly-Gly-Phe-Leu-NH-CH2 -)2 bis-trifluoroacetate] (I: {Tyr(Nα,Nα-allyl2)}-GGFL / II: {Tyr(Nα,Nα-allyl2)}-GGFL; linker I:C-II:C via Ethylenediamine)
tolerated subcutaneous dose: at least 15 mg./kg.
